The values below come from ChEMBL document CHEMBL1129670, “Synthesis and structure-activity relationships of N-propyl-N-(4-pyridinyl)-1H-indol-1-amine (besipirdine) and related analogs as potential therapeutic agents for Alzheimer's disease” (J Med Chem, 1996).

The target of test [1] is Muscarinic acetylcholine receptor. Type of test: cell membranes, Membrane.
Description: Inhibition of [3H]quinuclidinyl benzilate (QNB) binding from rat forebrain membranes in the absence of Zn
The target is the same in test [2]. Type of test: cell membranes, Membrane. The source holds these as a separate data set.
Description: Inhibition of [3H]quinuclidinyl benzilate (QNB) binding from rat forebrain membranes in the presence of Zn
The target of another test is T1, Acetylcholinesterase (Rattus norvegicus, UniProt P37136).
T1 sequence (P37136 whole entry): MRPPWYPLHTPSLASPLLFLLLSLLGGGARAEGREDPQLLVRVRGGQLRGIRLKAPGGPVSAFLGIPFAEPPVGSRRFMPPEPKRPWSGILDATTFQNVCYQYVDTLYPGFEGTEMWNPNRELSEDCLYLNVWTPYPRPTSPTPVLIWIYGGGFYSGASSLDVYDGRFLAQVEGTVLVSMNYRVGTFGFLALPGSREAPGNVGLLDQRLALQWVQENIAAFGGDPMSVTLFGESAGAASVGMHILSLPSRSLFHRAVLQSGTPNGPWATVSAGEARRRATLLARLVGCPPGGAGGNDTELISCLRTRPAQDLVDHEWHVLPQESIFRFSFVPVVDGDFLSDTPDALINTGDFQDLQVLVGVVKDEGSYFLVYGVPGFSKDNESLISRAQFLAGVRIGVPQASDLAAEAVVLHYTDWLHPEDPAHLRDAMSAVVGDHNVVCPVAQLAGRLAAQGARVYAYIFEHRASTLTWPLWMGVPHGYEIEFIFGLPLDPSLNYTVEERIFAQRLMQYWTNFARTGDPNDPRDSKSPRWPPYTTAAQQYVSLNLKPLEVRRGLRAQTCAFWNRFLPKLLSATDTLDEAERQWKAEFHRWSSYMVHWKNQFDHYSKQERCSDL

Test [3] concerns the target Sodium-dependent noradrenaline transporter (Homo sapiens, UniProt P23975).
Description: Inhibitory activity against norepinephrine (NE) uptake in rat whole brain synaptosome preparation
The species entered for test [4] is Mus musculus. As to the kind of experiment: animal or person.
Description: Effective dose against administration in mice
Test [5] deals with T2, Adrenergic receptor alpha-2 (Rattus norvegicus, UniProt P22086+P19328+P22909).
T2 sequence (P22086 whole entry): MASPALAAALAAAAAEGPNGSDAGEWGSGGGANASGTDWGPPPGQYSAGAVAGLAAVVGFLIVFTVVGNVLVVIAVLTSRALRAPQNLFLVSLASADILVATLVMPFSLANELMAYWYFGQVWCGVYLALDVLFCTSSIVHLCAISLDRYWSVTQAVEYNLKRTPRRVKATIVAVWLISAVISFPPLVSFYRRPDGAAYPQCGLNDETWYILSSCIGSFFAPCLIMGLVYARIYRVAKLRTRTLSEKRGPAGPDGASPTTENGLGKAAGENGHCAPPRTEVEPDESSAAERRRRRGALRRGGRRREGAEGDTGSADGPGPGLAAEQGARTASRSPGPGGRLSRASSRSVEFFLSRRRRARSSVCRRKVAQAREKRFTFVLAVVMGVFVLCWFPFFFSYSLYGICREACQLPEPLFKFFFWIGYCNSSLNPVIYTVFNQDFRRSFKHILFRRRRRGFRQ
T2 sequence (P19328 whole entry): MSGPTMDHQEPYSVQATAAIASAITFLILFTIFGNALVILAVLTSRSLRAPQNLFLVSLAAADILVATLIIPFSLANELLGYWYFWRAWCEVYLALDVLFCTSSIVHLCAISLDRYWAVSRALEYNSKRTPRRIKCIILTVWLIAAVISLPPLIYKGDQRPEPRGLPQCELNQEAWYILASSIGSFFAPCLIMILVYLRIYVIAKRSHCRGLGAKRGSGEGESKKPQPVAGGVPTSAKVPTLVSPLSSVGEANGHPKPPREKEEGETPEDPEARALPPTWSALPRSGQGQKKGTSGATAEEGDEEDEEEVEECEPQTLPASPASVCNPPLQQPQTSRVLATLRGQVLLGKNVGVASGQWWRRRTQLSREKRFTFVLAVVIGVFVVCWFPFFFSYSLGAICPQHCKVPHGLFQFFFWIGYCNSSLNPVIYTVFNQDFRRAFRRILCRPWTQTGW
T2 sequence (P22909 whole entry): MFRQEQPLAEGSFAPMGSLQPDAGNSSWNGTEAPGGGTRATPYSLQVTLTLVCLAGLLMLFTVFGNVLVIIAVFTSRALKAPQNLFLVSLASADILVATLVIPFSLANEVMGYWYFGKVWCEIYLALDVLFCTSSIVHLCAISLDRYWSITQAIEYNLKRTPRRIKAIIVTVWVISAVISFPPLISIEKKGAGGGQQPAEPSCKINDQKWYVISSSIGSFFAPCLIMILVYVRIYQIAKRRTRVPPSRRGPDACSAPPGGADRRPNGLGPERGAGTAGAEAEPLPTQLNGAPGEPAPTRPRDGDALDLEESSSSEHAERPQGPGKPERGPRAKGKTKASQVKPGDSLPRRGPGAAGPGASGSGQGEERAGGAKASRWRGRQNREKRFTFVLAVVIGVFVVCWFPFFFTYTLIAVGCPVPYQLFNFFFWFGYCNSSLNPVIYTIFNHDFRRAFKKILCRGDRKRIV
As to the kind of experiment: Inhibitory activity against [3H]clonidine binding to Alpha-2 adrenergic receptor in rat cortex.

Test [6] is filed under the species Mus musculus. Put plainly: Antagonistic activity against Scopolamine induced behavioral deficits in mice; 3/9. It is filed as functional.
Test [7] concerns Mus musculus. As to the kind of experiment: Antagonistic activity against Scopolamine induced behavioral deficits in mice at dose 0.02 mg/kg sc. It is filed as functional. The settings on record: route subcutaneous.
The species entered for test [8] is Mus musculus. The settings on record: dose 2.5 mg/kg; route subcutaneous.
Description: Antagonistic activity against Scopolamine induced behavioral deficits in mice at dose 2.5 mg/kg sc
For test [9], the species on record is Mus musculus. The settings on record: dose 5 mg/kg; route subcutaneous.
Description: Antagonistic activity against Scopolamine induced behavioral deficits in mice at dose 5.0 mg/kg sc
Test [10] is filed under the species Mus musculus.
The species entered for test [11] is Mus musculus. As to the kind of experiment: Antagonistic activity against Scopolamine induced behavioral deficits in mice; 1/6. Type of test: functional.
Test [12] has as its system Mus musculus. As to the kind of experiment: Antagonistic activity against Scopolamine induced behavioral deficits in mice at dose 1.25 mg/kg sc. The settings on record: route subcutaneous. Type of test: functional.
In test [13] the test system is Mus musculus. Put plainly: Antagonistic activity against Scopolamine induced behavioral deficits in mice at dose […] sc. Type of test: functional. The settings on record: route subcutaneous.

A word on the IC50: it is the concentration at which inhibition is half-maximal. High values mean weaker potency, low ones greater potency. What is called ED50 is the dose at which the effect has come halfway, by size or by number of responders.

Each structure is given as a SMILES string.

Chain of Sodium-dependent noradrenaline transporter (P23975 whole entry): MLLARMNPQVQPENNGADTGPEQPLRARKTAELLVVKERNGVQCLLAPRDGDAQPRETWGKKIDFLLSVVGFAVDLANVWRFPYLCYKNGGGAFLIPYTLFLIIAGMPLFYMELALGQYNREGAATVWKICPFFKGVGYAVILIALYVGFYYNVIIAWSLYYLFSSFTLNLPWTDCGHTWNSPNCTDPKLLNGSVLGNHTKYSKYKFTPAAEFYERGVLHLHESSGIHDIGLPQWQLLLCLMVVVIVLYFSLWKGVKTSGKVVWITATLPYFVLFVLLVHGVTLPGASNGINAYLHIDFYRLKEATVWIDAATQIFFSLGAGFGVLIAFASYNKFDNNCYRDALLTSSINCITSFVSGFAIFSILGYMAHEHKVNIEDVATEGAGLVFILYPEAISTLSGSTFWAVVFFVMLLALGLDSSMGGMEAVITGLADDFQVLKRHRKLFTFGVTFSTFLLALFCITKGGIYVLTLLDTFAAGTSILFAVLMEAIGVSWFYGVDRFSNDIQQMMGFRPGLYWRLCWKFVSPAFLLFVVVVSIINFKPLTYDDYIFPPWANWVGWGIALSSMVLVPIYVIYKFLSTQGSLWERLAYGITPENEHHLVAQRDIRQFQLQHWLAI
Description for Acetylcholinesterase: Inhibitory activity against acetylcholinesterase in rat striatal preparation

For `Brc1ccc2c(ccn2Nc2ccncc2)c1`, the IC50 in test [1] is 44 µM; in [2], 7.5 µM; on Acetylcholinesterase it was more than 100 µM; in test [3] it was more than 20 µM. For the same compound, the ED50 in the test filed under Mus musculus [4] is more than 20 mg/kg.

On to `O=C(O)/C=C/C(=O)O.c1cnn(Nc2ccncc2)c1`, for which the IC50 is more than 1000 µM in test [1], 247 µM in test [2], more than 100 µM against Acetylcholinesterase and more than 20 µM in [3]. For the same compound, the ED50 in the test filed under Mus musculus [4] is more than 20 mg/kg.

Regarding `CCCN(c1ccncc1)n1c(C)cc2ccccc21`, the IC50 is 2.3 µM in test [5]; 7.2 µM in test [1]; 1.4 µM in test [2]; more than 100 µM at Acetylcholinesterase; 1.1 µM in test [3]. In addition, in the test listed under Mus musculus [6], the Antagonism came to 3. Moreover, the Response with Mus musculus [7] is on record as 20%; in the test filed under Mus musculus [8], 20%; in the test filed under Mus musculus [9] it was 23%. The compound further gave an ED50 in the test filed under Mus musculus [4] of 3.2 mg/kg.

For `O=C(O)/C=C/C(=O)O.c1ccc2c(c1)cnn2Nc1ccncc1`, the IC50 is 128 µM in test [1], 29 µM in [2], more than 100 µM on Acetylcholinesterase and 17 µM in [3]. This compound also returned an Antagonism in the test listed under Mus musculus [10] of 0. The compound further had an ED50 in the test listed under Mus musculus [4] of 3.8 mg/kg.

Compound `CCCN(c1ccncc1)n1ccc2cc(Cl)ccc21` returned an Antagonism in the test listed under Mus musculus [11] of 1. Further, the Response with Mus musculus [12] came out at 20%. Further, the half-inhibitory concentration (IC50) in test [1] was 5.8 µM; in test [2] it was 2.4 µM; on Acetylcholinesterase it was more than 100 µM; in [3], 1.9 µM. This compound displayed an ED50 in the test filed under Mus musculus [4] of more than 20 mg/kg.

Turning to `CCCN(c1ccncc1)n1cc(C=O)c2ccccc21`, the 50% inhibitory concentration (IC50) in test [1] amounted to 3.3 µM; in test [2], 1.8 µM; on Acetylcholinesterase, 20 µM; in [3] it was 2.2 µM. For the same compound, the Antagonism in the test filed under Mus musculus [10] turned out to be 0. Further, the median effective dose (ED50) in the test listed under Mus musculus [4] turned out to be 18 mg/kg.

Regarding `CCCN(c1ccncc1)n1cccn1.O=C(O)/C=C/C(=O)O`, the concentration for half-maximal inhibition (IC50) was 127 µM in [1], 31 µM in test [2], more than 100 µM against Acetylcholinesterase and more than 20 µM in [3]. Moreover, the ED50 in the test listed under Mus musculus [4] was more than 20 mg/kg.

For `CCCN(c1ccncc1)n1cc2ccccc2n1`, the IC50 in test [1] was 91 µM; in test [2], 15 µM; against Acetylcholinesterase, more than 100 µM; in test [3], 4.7 µM. The compound further had a 50% effective dose (ED50) in the test listed under Mus musculus [4] of more than 20 mg/kg.

In the case of `O=C(O)/C=C/C(=O)O.c1ccc2c(c1)c1ccccc1n2Nc1ccncc1`, the IC50 in test [1] was 20 µM; in [2], 8.2 µM; against Acetylcholinesterase, more than 100 µM; in test [3] it was 1.4 µM. Moreover, the Antagonism in the test filed under Mus musculus [10] is 0. Moreover, the ED50 in the test filed under Mus musculus [4] was 2.3 mg/kg.

For the compound `C=CCN(c1ccncc1)n1ccc2ccccc21`, the half-inhibitory concentration (IC50) in test [1] is 7.3 µM; in [2], 1 µM; against Acetylcholinesterase, more than 100 µM; in test [3], 6.2 µM. For the same compound, in the test listed under Mus musculus [10], the Antagonism amounted to 0. The ED50 in the test filed under Mus musculus [4] worked out at 4.2 mg/kg.

For `c1ccc2nn(Nc3ccncc3)cc2c1`, the IC50 in test [1] is 409 µM; in [2] it was 128 µM; against Acetylcholinesterase, more than 100 µM; in [3] it was more than 20 µM. In the test filed under Mus musculus [4], this compound showed a median effective dose (ED50) of more than 20 mg/kg.

Take `COc1ccc2c(ccn2Nc2ccncc2)c1`: the IC50 in [1] is 44 µM; in test [2], 7.5 µM; on Acetylcholinesterase, more than 100 µM; in test [3], more than 20 µM. In addition, the median effective dose (ED50) in the test listed under Mus musculus [4] is more than 20 mg/kg.

As to `Cc1cn(Nc2ccncc2)c2ccccc12`, the Antagonism in the test filed under Mus musculus [11] came to 1. For the same compound, the Response in the test on Mus musculus [13] is given as 33%. For the same compound, the IC50 in test [1] is 82 µM; in [2] it was 35 µM; at Acetylcholinesterase, more than 100 µM; in test [3], 12.8 µM. This compound also had an ED50 in the test listed under Mus musculus [4] of 1 mg/kg.

On to `O=[N+]([O-])c1ccc2c(ccn2Nc2ccncc2)c1`, for which the concentration for half-maximal inhibition (IC50) in [1] was 146 µM; in test [2], 12 µM; at Acetylcholinesterase, more than 100 µM; in test [3], 9.9 µM. The compound further displayed an ED50 in the test filed under Mus musculus [4] of more than 20 mg/kg.

Regarding `Clc1cccc(Cl)c1NC1=NCCN1` [CLONIDINE], in test [3], the IC50 was more than 20 µM. This compound showed an Antagonism in the test filed under Mus musculus [10] of 0. This compound also registered an ED50 in the test listed under Mus musculus [4] of 0.36 mg/kg.

`O=C1CCCN1CC#CCN1CCCC1` [OXOTREMORINE]: the IC50 worked out at 2.7 µM in [1] and 0.66 µM in [2].

In turn, `COC(=O)[C@@H]1[C@H]2C[C@H]3c4[nH]c5ccccc5c4CCN3C[C@@H]2CC[C@@H]1O` [YOHIMBINE] gave an ED50 in the test filed under Mus musculus [4] of more than 8 mg/kg.
